Data taken from ChEMBL document CHEMBL3864127, “Janadolide, a Cyclic Polyketide-Peptide Hybrid Possessing a tert-Butyl Group from an Okeania sp. Marine Cyanobacterium” (J Nat Prod, 2016).

Key:
[1] = Cytotoxicity against human HeLa cells assessed as cell growth inhibition at 10 uM after 72 hrs by MTT assay; format: toxicity, cell-based
[2] = test system: Trypanosoma brucei brucei; test: Antitrypanosomal activity against bloodstream form of Trypanosoma brucei brucei GUTat 3.1 after 72 hrs by Alamar blue assay; format: functional; conditions: GUTat 3.1, 72 h
[3] = Cytotoxicity against human HL60 cells assessed as cell growth inhibition at 10 uM after 72 hrs by MTT assay; format: toxicity, cell-based; conditions: hl-60, 72 h
[4] = Cytotoxicity against human MRC5 cells assessed as cell growth inhibition at 10 uM after 7 days by MTT assay; format: toxicity, cell-based; conditions: mrc5, 168 h

Row | IC50 [2] [nM] | SMILES | Activity [1] | Activity [3] | Activity [4]
1 | 47 | C/C1=C\[C@@H](C(C)(C)C)OC(=O)[C@H](CC(C)C)N(C)C(=O)[C@H](C)N(C)C(=O)CNC(=O)[C@H](C(C)C)NC(=O)[C@@H]2CCCN2C(=O)[C@H](C)CC1 | Non-Toxic | Non-Toxic | Non-Toxic
2 | 1200 | Cc1ccc(C(=O)Nc2ccc(S(=O)(=O)O)c3cc(S(=O)(=O)O)cc(S(=O)(=O)O)c23)cc1NC(=O)c1cccc(NC(=O)Nc2cccc(C(=O)Nc3cc(C(=O)Nc4ccc(S(=O)(=O)O)c5cc(S(=O)(=O)O)cc(S(=O)(=O)O)c45)ccc3C)c2)c1 [SURAMIN] | – | – | –
